From publication PMC7704979, “Effect of the versatile bifunctional chelator AAZTA^5 on the radiometal labelling properties and the in vitro performance of a gastrin releasing peptide receptor antagonist” (EJNMMI Radiopharmacy and Chemistry, 2020)

Assays:
GRPr = target: T1, GRPr (Homo sapiens, UniProt P30550); assay: Saturation binding studies on intact PC3 cells; conditions: for Bmax (concentration of the radiotracer required to saturate the receptors): intact PC3 cells, 4 °C, 120 min, normalized for 1 × 10^6 cells per well
T1 construct: For receptor saturation analysis, PC3 cells were seeded at a density of 0.8–1 million cells per well; endogenous in cells; host or cells: PC3 (human prostate adenocarcinoma cell line), intact cells
Experimental: For receptor saturation analysis, PC3 cells were seeded at a density of 0.8–1 million cells per well in 6-well plates and incubated overnight with medium (DMEM: F12 (1:1) containing 1% FBS, 100 U/mL penicillin and 100 μg/mL streptomycin). The next day, the medium was removed, the cells washed and incubated for 1 h at 37 °C with fresh medium. […] After the addition of the radioligands, the cells were incubated for 120 min at 4 °C. Non-specific binding was determined in the presence of Tyr^4-Bombesin at a final concentration of 1 μM. Then the cells were washed twice with ice-cold PBS, followed by solubilization with 1 N NaOH and the cell-associated radioactivity was measured using a gamma-counter. Specific binding was plotted against the total molar concentration of the added radiotracer. The Kd values and the concentration of the radiotracer required to saturate the receptors (Bmax) were determined by nonlinear regression using GraphPad (Prism 8 Graph Pad Software, San Diego, CA). For all the cell studies the values are normalized for 1 × 10^6 cells per well and all data are from two independent experiments with triplicates in each experiment.

PC3 cells [1] = assay: Internalization studies in PC3 cells; format: cell-based, human; conditions: 37 °C; for specifically internalized activity / total cell associated uptake: 6 h; for total cell associated uptake: % of applied radioactivity
Experimental: For internalization experiments, PC3 cells were seeded into 6-well plates and treated as described above. […] To determine nonspecific membrane binding and internalization, excess of Tyr^4-Bombesin (final concentration 1 μΜ) was added to selected wells. At each time point, the internalization was stopped by removing the medium and washing the cells twice with ice-cold PBS. To remove the receptor-bound radioligand, an acid wash was carried out twice with a 0.1 M glycine buffer pH 2.8 for 5 min on ice. Finally, cells were solubilized with 1 N NaOH. The radioactivity of the culture medium, the receptor-bound, and the internalized fractions were measured in a γ-counter.

PC3 cells [2] = assay: In vitro therapy study, trypan blue exclusion viability of PC3 cells; format: cell-based, human; conditions: monotherapy (rapamycin 10 nM or ^177Lu-labelled LF1 1.85 MBq), 72 h
Experimental: For the in vitro therapy studies, PC3 cells were seeded at a density of 50,000–100,000 cells (depending on the investigating time point: 100000, 75,000 and 50,000 cells for 24, 48, 72 h respectively) in 12-well plates and incubated overnight with cultivation medium at 37 °C and 5% CO2. The next day, the medium was removed, the cells washed, and culture medium containing either rapamycin (10 nM, dissolved in dimethyl sulfoxide (DMSO)) or DMSO (control, the final concentration of DMSO in the culture medium was 0.5%) was added. The plates were incubated at 37 °C and 5% CO2 for a period of 6 h. Afterwards, the medium containing rapamycin or DMSO was removed and fresh medium was added in each well. […] The viability of the cells was accessed by the trypan blue exclusion assay after incubation at 37 °C and 5% CO2 for 24, 48 and 72 h. The experiment was performed twice in triplicate.

T1 sequence (P30550 whole entry): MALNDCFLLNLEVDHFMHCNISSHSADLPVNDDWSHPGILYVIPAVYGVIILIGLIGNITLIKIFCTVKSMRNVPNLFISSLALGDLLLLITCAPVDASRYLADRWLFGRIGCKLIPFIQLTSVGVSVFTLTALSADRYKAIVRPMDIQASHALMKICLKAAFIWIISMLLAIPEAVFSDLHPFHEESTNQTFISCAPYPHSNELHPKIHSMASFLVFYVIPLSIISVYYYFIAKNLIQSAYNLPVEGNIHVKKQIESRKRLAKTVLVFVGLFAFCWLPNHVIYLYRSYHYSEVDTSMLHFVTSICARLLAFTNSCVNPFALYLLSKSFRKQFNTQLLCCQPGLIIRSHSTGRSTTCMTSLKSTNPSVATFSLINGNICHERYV

SMILES: CC(C)C[C@H](NC(=O)CC(O)[C@H](CC(C)C)NC(=O)[C@H](Cc1c[nH]cn1)NC(=O)CNC(=O)[C@@H](NC(=O)[C@H](C)NC(=O)[C@H](Cc1c[nH]c2ccccc12)NC(=O)[C@H](CCC(N)=O)NC(=O)[C@@H](Cc1ccccc1)NC(=O)CN1CCC(NC(=O)CCCCC2(N(CC(=O)O)CC(=O)O)CN(CC(=O)O)CCN(CC(=O)O)C2)CC1)C(C)C)C(N)=O (some centres unmarked) [^68Ga-labelled LF1, metal not drawn]
- Bmax (concentration of the radiotracer required to saturate the receptors) (GRPr; listed as 68/natGa-LF1): 0.4 ± 0.02 nM
- factor of lower affinity compared to ^111/natIn-LF1 (GRPr; ratio of Kd values, PC3 cells): ~3
- internalized activity (PC3 cells [1]; 4 h): 2.8 ± 0.5%

SMILES: CC(C)C[C@H](NC(=O)CC(O)[C@H](CC(C)C)NC(=O)[C@H](Cc1c[nH]cn1)NC(=O)CNC(=O)[C@@H](NC(=O)[C@H](C)NC(=O)[C@H](Cc1c[nH]c2ccccc12)NC(=O)[C@H](CCC(N)=O)NC(=O)[C@@H](Cc1ccccc1)NC(=O)CN1CCC(NC(=O)CCCCC2(N(CC(=O)O)CC(=O)O)CN(CC(=O)O)CCN(CC(=O)O)C2)CC1)C(C)C)C(N)=O (some centres unmarked) [^111In-labelled LF1, metal not drawn]
- Bmax (concentration of the radiotracer required to saturate the receptors) (GRPr; listed as 111/natIn-LF1): 0.6 ± 0.06 nM
- specifically internalized activity (PC3 cells [1]): 9.2 ± 0.5%
- total cell associated uptake (PC3 cells [1]): 38.3 ± 2.5%

SMILES: CC(C)C[C@H](NC(=O)CC(O)[C@H](CC(C)C)NC(=O)[C@H](Cc1c[nH]cn1)NC(=O)CNC(=O)[C@@H](NC(=O)[C@H](C)NC(=O)[C@H](Cc1c[nH]c2ccccc12)NC(=O)[C@H](CCC(N)=O)NC(=O)[C@@H](Cc1ccccc1)NC(=O)CN1CCC(NC(=O)CN2CCN(CC(=O)O)CCN(CC(=O)O)CCN(CC(=O)O)CC2)CC1)C(C)C)C(N)=O (some centres unmarked) [^177/natLu-RM2, metal not drawn, reference compound]
- Bmax (concentration of the radiotracer required to saturate the receptors) (GRPr): 0.8 ± 0.03 nM

SMILES: CC(C)C[C@H](NC(=O)CC(O)[C@H](CC(C)C)NC(=O)[C@H](Cc1c[nH]cn1)NC(=O)CNC(=O)[C@@H](NC(=O)[C@H](C)NC(=O)[C@H](Cc1c[nH]c2ccccc12)NC(=O)[C@H](CCC(N)=O)NC(=O)[C@@H](Cc1ccccc1)NC(=O)CN1CCC(NC(=O)CCCCC2(N(CC(=O)O)CC(=O)O)CN(CC(=O)O)CCN(CC(=O)O)C2)CC1)C(C)C)C(N)=O (some centres unmarked) [^177Lu-labelled LF1, metal not drawn]
- Bmax (concentration of the radiotracer required to saturate the receptors) (GRPr; listed as 177/natLu-LF1): 0.8 ± 0.05 nM
- specifically internalized activity (PC3 cells [1]): 8.9 ± 0.8%
- total cell associated uptake (PC3 cells [1]): 34.5 ± 2.3%

SMILES: CO[C@H]1C[C@@H]2CC[C@@H](C)[C@@](O)(O2)C(=O)C(=O)N2CCCC[C@H]2C(=O)O[C@H]([C@H](C)C[C@@H]2CC[C@@H](O)[C@H](OC)C2)CC(=O)[C@H](C)/C=C(\C)[C@@H](O)[C@@H](OC)C(=O)[C@H](C)C[C@H](C)/C=C/C=C/C=C/1C [rapamycin]
- cell viability (PC3 cells [2]): approx. 50%
